Test systems include SK-MEL-28; RXF 393; OVCAR-5; NCI-H226; M14; SF-268; OVCAR-8; SK-OV-3; 786-0; A549; U-251; K562; CAKI-1; UACC-257; M19-MEL; SNB-19; T47D; MDA-N; BT-549; HL-60.
Common to all, as to test: DTP human tumour cell line panel, 48 h

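All cell lines were grown in 96-well plates and treated with compound for 48 hours. Abbreviation: GI50, concentration required for 50% inhibition of growth.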 Activity calls are given as the source filed them. No stated cut-off is given here; in the data, active = GI50 up to about 1.1 µM and inactive = higher.

This is an account of results in ChEMBL document CHEMBL1201862, “PubChem BioAssay data set” (2004).

`O=C1c2nc3n(c2C(=O)c2c1nc1n2CCC1)CCC3`: the GI50 (commonly the concentration giving 50% growth inhibition) in the test on SK-MEL-28 is 13.3 µM (inactive); with RXF 393, 2.74 µM (inactive); in the test on OVCAR-5 it was 16.9 µM (inactive); in the test on NCI-H226, 6.97 µM (inactive); with M14, 1.76 µM (inactive); in the test with SF-268, 8.28 µM (inactive). Besides, the GI50 with OVCAR-8 is 5.46 µM (inactive); in the test on SK-OV-3, 23.7 µM (inactive); in the test on 786-0, 5.25 µM (inactive); with A549, 4.39 µM (inactive); in the test on U-251 it was 6.79 µM (inactive); in the test with K562 it was 13 µM (inactive). The GI50 in the test on CAKI-1 is 9.35 µM (inactive); with UACC-257, 2.2 µM (inactive); in the test with M19-MEL it was 0.184 µM (active); in the test on SNB-19, 14.7 µM (inactive); in the test with T47D it was > 10 µM (inactive); in the test on MDA-N, 1.77 µM (inactive). For the same compound, the GI50 in the test on BT-549 was > 10 µM (inactive).

For `CC12OOC(c3ccccc31)c1c2ccc2ccccc12` (stereo not drawn), the GI50 with SK-MEL-28 is 13.8 µM (inactive); with RXF 393, 1.18 µM (inactive); with OVCAR-5 it was 19.5 µM (inactive); in the test on NCI-H226, 18.7 µM (inactive); with M14, 9.23 µM (inactive); with SF-268 it was 11.2 µM (inactive). Also, the GI50 in the test with OVCAR-8 was 6.71 µM (inactive); with SK-OV-3, 20 µM (inactive); with 786-0, 8.53 µM (inactive); in the test on A549, 3.73 µM (inactive); with U-251 it was 14.7 µM (inactive); in the test on K562, 1.65 µM (inactive). The GI50 in the test on CAKI-1 was 0.641 µM (active); with UACC-257, 13.4 µM (inactive); with M19-MEL, 3.13 µM (inactive); in the test with HL-60, 0.334 µM (active); in the test on SNB-19, 16.7 µM (inactive); in the test on T47D, 1.82 µM (inactive). Besides, the GI50 with MDA-N is 5.53 µM (inactive); in the test with BT-549, 10.4 µM (inactive).

Turning to `CN(C)c1n/c(=N/c2cccc(Cl)c2)ss1`, the GI50 in the test on SK-MEL-28 is 12.1 µM (inactive); in the test with RXF 393, 16.7 µM (inactive); in the test with OVCAR-5 it was 35 µM (inactive); with NCI-H226, 34.7 µM (inactive); in the test with M14, 14.6 µM (inactive); in the test on SF-268, 13.6 µM (inactive). Also, the GI50 in the test on OVCAR-8 was 12.9 µM (inactive); with SK-OV-3 it was 68.9 µM (inactive); in the test with 786-0 it was 12.9 µM (inactive); with A549 it was 22.7 µM (inactive); with U-251, 11.8 µM (inactive); in the test with K562, 9.08 µM (inactive). Also, the GI50 was 19.1 µM (inactive) in the test with CAKI-1; 15.6 µM (inactive) in the test on UACC-257; 17.1 µM (inactive) in the test with M19-MEL; 3.74 µM (inactive) in the test on HL-60; 35.9 µM (inactive) with SNB-19.

`O=C(CC1(O)C(=O)Nc2ccccc21)c1ccccc1O` (stereo not drawn): the GI50 in the test with SK-MEL-28, with RXF 393, in the test with OVCAR-5, in the test with NCI-H226, in the test with M14 and in the test with SF-268 was > 100 µM (inactive) each time. Further, the GI50 in the test with OVCAR-8, with SK-OV-3, in the test on 786-0, in the test with A549, in the test with K562 and with CAKI-1 was > 100 µM (inactive) throughout. For the same compound, the GI50 with UACC-257, with M19-MEL, with HL-60 and in the test with SNB-19 was > 100 µM (inactive) throughout.

In the case of `C[C@@H](O)CCC(=O)c1ccoc1`, the GI50 in the test on SK-MEL-28, with RXF 393, in the test on OVCAR-5, in the test with NCI-H226, in the test on M14 and in the test on SF-268 was > 100 µM (inactive) each time. Also, the GI50 in the test on OVCAR-8, with SK-OV-3, in the test on 786-0, in the test on A549, in the test on U-251 and with K562 was > 100 µM (inactive) each time. Further, the GI50 with CAKI-1, in the test with UACC-257, in the test with M19-MEL, with HL-60 and in the test on SNB-19 was > 100 µM (inactive) throughout.

In the case of `CC(C)(C)c1cc2c(OP(c3ccccc3)c3ccccc3)c(c1)Cc1cc(C(C)(C)C)cc(c1OP(c1ccccc1)c1ccccc1)Cc1cc(C(C)(C)C)cc(c1OP(c1ccccc1)c1ccccc1)Cc1cc(C(C)(C)C)cc(c1OP(c1ccccc1)c1ccccc1)C2`, the GI50 is > 5 µM (inactive) with SK-MEL-28; 19.8 µM (inactive) with RXF 393; > 5 µM (inactive) in the test on OVCAR-5; > 5 µM (inactive) with NCI-H226; > 5 µM (inactive) in the test with M14; > 5 µM (inactive) with SF-268. Besides, the GI50 in the test on OVCAR-8, in the test with SK-OV-3, in the test with 786-0, in the test with A549, with U-251 and with K562 was > 5 µM (inactive) each time. The GI50 in the test on CAKI-1, in the test with UACC-257, in the test with M19-MEL, with HL-60 and with SNB-19 was > 5 µM (inactive) in each case.

As for `CCOC(=O)C(N)CSC(=O)NC` (stereo not drawn), the GI50 in the test with SK-MEL-28 is 136 µM (inactive); in the test with RXF 393, 105 µM (inactive); in the test with OVCAR-5, 350 µM (inactive); with NCI-H226 it was 247 µM (inactive); in the test with M14, 67.9 µM (inactive); in the test with SF-268, 115 µM (inactive). Further, the GI50 was 97.7 µM (inactive) in the test with OVCAR-8; 286 µM (inactive) in the test on SK-OV-3; 73.6 µM (inactive) in the test on 786-0; 327 µM (inactive) in the test with A549; 121 µM (inactive) with U-251; 45.3 µM (inactive) with K562. Also, the GI50 with CAKI-1 is 104 µM (inactive); in the test on UACC-257, 208 µM (inactive); in the test with M19-MEL it was 64.6 µM (inactive); with HL-60, 74 µM (inactive); in the test with SNB-19 it was 251 µM (inactive); in the test on T47D, 133 µM (inactive). The GI50 is 39.8 µM (inactive) in the test with MDA-N and 121 µM (inactive) in the test on BT-549.

With `Cc1cc(N(CCC#N)CCC#N)ccc1/C=N\c1ccc(C(=O)NN2C(=O)/C(=C/c3ccc(N(CCC#N)CCC#N)cc3)N=C2c2cc([N+](=O)[O-])ccc2Cl)cc1`, the GI50 in the test on SK-MEL-28 is > 100 µM (inactive); in the test on RXF 393 it was > 100 µM (inactive); in the test with OVCAR-5 it was > 100 µM (inactive); in the test on NCI-H226, > 100 µM (inactive); in the test with M14, 62.7 µM (inactive); with SF-268, > 100 µM (inactive). For the same compound, the GI50 with OVCAR-8 is > 100 µM (inactive); in the test with SK-OV-3 it was > 100 µM (inactive); with 786-0, > 100 µM (inactive); in the test with A549, > 100 µM (inactive); with U-251, > 100 µM (inactive); with K562 it was 33 µM (inactive). For the same compound, the GI50 in the test with CAKI-1 was > 100 µM (inactive); in the test with UACC-257, > 100 µM (inactive); in the test on M19-MEL, > 100 µM (inactive); with HL-60 it was 61.1 µM (inactive); in the test on SNB-19 it was > 100 µM (inactive).
